PubChem BioAssay AID1963970 (Molecular Pharmacology Branch, DTP, NCI, 2024)
pIC50: −log10 of the molar value.

Test system: 931267-113-T-J1-PDC multicell spheroid viability
Assay: Anticancer human tumor 931267-113-T-J1-PDC patient-derived colon adenocarcinoma cell line growth inhibition [PI3K]
Conditions: for viability, T/C: stronger effect = lower value
Procedure, shortened: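 Stroma-containing spheroids: tumor line, pooled-donor HUVEC, hMSC. Treatments: targeted agents with PI3K inhibitors. Dosing: clinically relevant, half-log spacing, 10 microM ceiling without known Cmax. Read-out: cell viability.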

[1] = curve of first compound, second compound 0.0316 µM
[2] = curve of first compound, second compound 0.1 µM
[3] = curve of first compound, second compound 0.316 µM
[4] = curve of first compound, second compound 1 µM
[5] = curve of first compound, second compound 3.16 µM
[6] = curve of first compound, second compound 10 µM
[7] = second compound 0.0316 µM, first compound 0.0316 µM
[8] = second compound 0.0316 µM, first compound 0.1 µM
[9] = second compound 0.0316 µM, first compound 0.316 µM
[10] = second compound 0.0316 µM, first compound 1 µM
[11] = second compound 0.0316 µM, first compound 3.16 µM
[12] = second compound 0.0316 µM, first compound 10 µM
[13] = second compound 0.1 µM, first compound 0.0316 µM
[14] = second compound 0.1 µM, first compound 0.1 µM
[15] = second compound 0.1 µM, first compound 0.316 µM
[16] = second compound 0.1 µM, first compound 1 µM
[17] = second compound 0.1 µM, first compound 3.16 µM
[18] = second compound 0.1 µM, first compound 10 µM
[19] = second compound 0.316 µM, first compound 0.0316 µM
[20] = second compound 0.316 µM, first compound 0.1 µM
[21] = second compound 0.316 µM, first compound 0.316 µM
[22] = second compound 0.316 µM, first compound 1 µM
[23] = second compound 0.316 µM, first compound 3.16 µM
[24] = second compound 0.316 µM, first compound 10 µM
[25] = second compound 1 µM, first compound 0.0316 µM
[26] = second compound 1 µM, first compound 0.1 µM
[27] = second compound 1 µM, first compound 0.316 µM
[28] = second compound 1 µM, first compound 1 µM
[29] = second compound 1 µM, first compound 3.16 µM
[30] = second compound 1 µM, first compound 10 µM
[31] = second compound 3.16 µM, first compound 0.0316 µM
[32] = second compound 3.16 µM, first compound 0.1 µM
[33] = second compound 3.16 µM, first compound 0.316 µM
[34] = second compound 3.16 µM, first compound 1 µM
[35] = second compound 3.16 µM, first compound 3.16 µM
[36] = second compound 3.16 µM, first compound 10 µM
[37] = second compound 10 µM, first compound 0.0316 µM
[38] = second compound 10 µM, first compound 0.1 µM
[39] = second compound 10 µM, first compound 0.316 µM
[40] = second compound 10 µM, first compound 1 µM
[41] = second compound 10 µM, first compound 3.16 µM
[42] = second compound 10 µM, first compound 10 µM
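Also: viability read 7 days after compound addition.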

Structure (SMILES): CC(Nc1ncnc2nc[nH]c12)c1cc2cccc(Cl)c2c(=O)n1-c1ccccc1 (stereo unspecified)
- viability, T/C (compound 0.0316 µM): 102% [middle of 8 runs]
- viability, T/C (compound 0.1 µM): 99.7% [middle of 8 runs]
- viability, T/C (compound 0.316 µM): 102% [middle of 8 runs]
- viability, T/C (compound 1 µM): 100% [middle of 8 runs]
- viability, T/C (compound 3.16 µM): 99.7% [middle of 8 runs]
- viability, T/C (compound 10 µM): 96.7% [middle of 8 runs]
- pIC50 (compound alone, run of 05/09/2023): < 5.00

Structure (SMILES): C[C@@H](NC(=O)c1ncnc(N)c1Cl)c1ncc(C(=O)Nc2cc(C(F)(F)F)c(Cl)cn2)s1 + CC(Nc1ncnc2nc[nH]c12)c1cc2cccc(Cl)c2c(=O)n1-c1ccccc1
- pIC50 [1]: < 5.00
- pIC50 [2]: < 5.00
- pIC50 [3]: < 5.00
- pIC50 [4]: < 5.00
- pIC50 [5]: < 5.00
- pIC50 [6]: < 5.00
- viability, T/C [7]: 107%
- viability, T/C [8]: 117%
- viability, T/C [9]: 117%
- viability, T/C [10]: 104%
- viability, T/C [11]: 92.7%
- viability, T/C [12]: 74.5%
- viability, T/C [13]: 121%
- viability, T/C [14]: 107%
- viability, T/C [15]: 110%
- viability, T/C [16]: 111%
- viability, T/C [17]: 98.9%
- viability, T/C [18]: 78.1%
- viability, T/C [19]: 113%
- viability, T/C [20]: 116%
- viability, T/C [21]: 104%
- viability, T/C [22]: 110%
- viability, T/C [23]: 103%
- viability, T/C [24]: 75.1%
- viability, T/C [25]: 115%
- viability, T/C [26]: 114%
- viability, T/C [27]: 105%
- viability, T/C [28]: 110%
- viability, T/C [29]: 107%
- viability, T/C [30]: 69.4%
- viability, T/C [31]: 98.5%
- viability, T/C [32]: 108%
- viability, T/C [33]: 103%
- viability, T/C [34]: 95.8%
- viability, T/C [35]: 98.2%
- viability, T/C [36]: 66.5%
- viability, T/C [37]: 96.4%
- viability, T/C [38]: 107%
- viability, T/C [39]: 99.8%
- viability, T/C [40]: 106%
- viability, T/C [41]: 86%
- viability, T/C [42]: 53.2%

Structure (SMILES): C=CC(=O)N1CCN(c2nc(=O)n(-c3c(C)ccnc3C(C)C)c3nc(-c4c(O)cccc4F)c(F)cc23)C(C)C1 (stereo unspecified) + CC(Nc1ncnc2nc[nH]c12)c1cc2cccc(Cl)c2c(=O)n1-c1ccccc1
- pIC50 [1]: < 5.00
- pIC50 [2]: < 5.00
- pIC50 [3]: < 5.00
- pIC50 [4]: < 5.00
- pIC50 [5]: < 5.00
- pIC50 [6]: < 5.00
- viability, T/C [7]: 97.5%
- viability, T/C [8]: 103%
- viability, T/C [9]: 96.6%
- viability, T/C [10]: 111%
- viability, T/C [11]: 107%
- viability, T/C [12]: 107%
- viability, T/C [13]: 110%
- viability, T/C [14]: 113%
- viability, T/C [15]: 107%
- viability, T/C [16]: 111%
- viability, T/C [17]: 117%
- viability, T/C [18]: 94.2%
- viability, T/C [19]: 112%
- viability, T/C [20]: 109%
- viability, T/C [21]: 116%
- viability, T/C [22]: 107%
- viability, T/C [23]: 114%
- viability, T/C [24]: 96.5%
- viability, T/C [25]: 108%
- viability, T/C [26]: 109%
- viability, T/C [27]: 99.5%
- viability, T/C [28]: 105%
- viability, T/C [29]: 111%
- viability, T/C [30]: 88.3%
- viability, T/C [31]: 104%
- viability, T/C [32]: 101%
- viability, T/C [33]: 93.5%
- viability, T/C [34]: 99.9%
- viability, T/C [35]: 107%
- viability, T/C [36]: 87%
- viability, T/C [37]: 94.9%
- viability, T/C [38]: 96.8%
- viability, T/C [39]: 107%
- viability, T/C [40]: 98.1%
- viability, T/C [41]: 106%
- viability, T/C [42]: 102%
